Series [1] in a line: Hydrolysis stability test in homogeneous aqueous solution. Conditions: 50° C., 24 hours, first order degradation assumed. Type of series: physicochemical. How it is done: The chemical stability towards hydrolysis of the phenylamidines described in the prior art is good but an improved stability may be an advantage during the preparation and formulation processes in a large scale. The improved stability towards hydrolysis was proven by a hydrolysis stability test as described below: To produce a suitable preparation of active compound for the hydrolysis stability test, a 1000 ppm stock solution (1 mg/mL) of active compound in acetonitrile is prepared. Three aliquots of 100 μL are pipetted into HPLC vials and diluted with 750 μL acetonitrile. In each vial 850 μL of the appropriate buffer solution (pH4, pH7 and pH9, CertiPUR, Fa. Merck) is added. The buffer containing HPLC vials are incubated in a heated sample tray at 50° C. for 24 hours. The amount A of the active compound is analyzed by HPLC (UV-peak areas at 210 nm) at eight points in time t: 0 min, 140 min, 350 min, 560 min, 770 min, 980 min, 1190 min, 1400 min. The half-life time (T1/2) of each active compound is calculated via linear regression by using the following equations (first order degradation assumed): In table III the results of the hydrolysis stability test are shown for the compounds (I-01), (I-02), (I-03), (I-04) and (I-05) at various pH-values. […] 337 known from WO2008/110278. […] This increased stability will be of advantage during the preparation and formulation processes in a large scale compared to known amidines. The data are to be seen merely by way of example and are not limiting for the purposes of the invention.

Series [2] can be described thus: Photolysis stability test. Type of series: physicochemical. Conditions: dried film in MTP, irradiated at 30° C. and 480 W/m^2, up to 24 h, first order degradation assumed. The method, then: The stability towards photolysis of the phenylamidines described in the prior art is good but an improved stability towards photolysis may be an advantage as it could offer a longer lasting efficacy when applied to plants by foliar application. The improved stability towards photolysis was proven by a […] stability test as described below:
To produce a suitable preparation of active compound for the photolysis stability test, a 1000 ppm stock solution (1 mg/mL) of active compound in acetonitrile is prepared. Aliquots of 25 μL of this stock solution are pipetted in three wells of a Bio-one microtiter plate (MTP) UVStar 96 (Fa. Greiner, Art. No. 655801). The MTP is dried overnight in the dark and then irradiated at 30° C. and 480 W/m^2 with a UV irradiation device SUNTEST XLS+ or SUNTEST CPS (Fa. Atlas). The amount A of the active compound is analyzed by HPLC (UV-peak areas at 210 nm) at five points in time t: 0 h, 2 h, 4 h, 6 h, 24 h by using the following method: 200 μL acetonitrile is added in the respective well of the MTP and the MTP is sealed with a Bio-one sealing foil, viewseal 80/140 mm (Fa. Greiner, Art. No. 676070). The MTPs are sonicated for 3 minutes and analysed by HPLC. The half-life time (T1/2) of each active compound is calculated via linear regression by using the following equations (first order degradation assumed): […]
In table IV the results of the photolysis stability test are shown for the compounds (I-01) and (I-02). […] This increased chemical stability towards photolysis will be of advantage as it will offer a longer lasting efficacy when applied to plants by foliar application compared to known amidines. The data are to be seen merely by way of example and are not limiting for the purposes of the invention.

The next series relates to soy bean plants. Briefly: Plant compatibility test using soy bean plants. Type of series: in vivo. The settings on record: soy bean young plants sprayed at 1000 ppm, evaluated 6 days after application; 0% no damages, 100% totally damaged. How it is done: Plant Compatibility Test Using Soy Bean Plants • Solvent: 24.5 parts by weight of acetone • 24.5 parts by weight of dimethylacetamide • Emulsifier: 1 part by weight of alkylaryl polyglycol ether To produce a suitable preparation of active compound, 1 part by weight of active compound is mixed with the stated amounts of solvent and emulsifier, and the concentrate is diluted with water to the desired concentration. Young plants are sprayed with the preparation of active compound at the stated application rate. The plants are then placed in a greenhouse at approximately 21° C. and a relative atmospheric humidity of approximately 80%. The test is evaluated 6 days after application and comprises plant damages like leaf deformation, chlorosis, necrosis, shoot damage or stunting. The results are summarized in table V. 0% means no damages are observed, while 100% means that the plants are totally damaged.

Series [3] can be described thus: Log P by HPLC on reversed phase columns (EEC directive 79/831 Annex V.A8). Type of series: physicochemical. Conditions: LC-UV. The method, then: Measurement of Log P values was performed according to EEC directive 79/831 Annex V.A8 by HPLC (High Performance Liquid Chromatography) on reversed phase columns with the following methods: • ^[a] Log P value is determined by measurement of LC-UV, in an acidic range, with 0.1% formic acid in water and acetonitrile as eluent (linear gradient from 10% acetonitrile to 95% acetonitrile). • [b] Log P value is determined by measurement of LC-UV, in a neutral range, with 0.001 molar ammonium acetate solution in water and acetonitrile as eluent (linear gradient from 10% acetonitrile to 95% acetonitrile). […] Lambda-max-values were determined using UV-spectra from 200 nm to 400 nm and the peak values of the chromatographic signals.

The next series has as its system Phakopsora pachyrhizi. Briefly: In vivo preventive test on Phakopsora (soybeans). Conditions: 7 days after inoculation. The method, then:
To produce a suitable preparation of active compound, 1 part by weight of active compound is mixed with the stated amounts of solvent and emulsifier, and the concentrate is diluted with water to the desired concentration. To test for preventive activity, young plants are sprayed with the preparation of active compound at the stated rate of application. After the spray coating has dried on, the plants are inoculated with an aqueous spore suspension of the causal agent of soybean rust (Phakopsora pachyrhizi) and stay for 24 h without light in an incubation cabinet at approximately 24° C. and a relative atmospheric humidity of 95%. The plants remain in the incubation cabinet at approximately 24° C. and a relative atmospheric humidity of approximately 80% and a day/night interval of 12 h.

The subject of a further series is Puccinia recondita. Kind of series: In vivo preventive test on Puccinia recondita (brown rust on wheat). Conditions: 500 ppm of active ingredient, 11 days after inoculation. The method, then: (§1) • Solvent: 5% by volume of Dimethyl sulfoxide • 10% by volume of Acetone • Emulsifier: 1 μl of Tween® 80 per mg of active ingredient
(§2) The active ingredients are made soluble and homogenized in a mixture of Dimethyl sulfoxide/Acetone//Tween® 80 and then diluted in water to the desired concentration.
(§3) The young plants of wheat are treated by spraying the active ingredient prepared as described above. Control plants are treated only with an aqueous solution of Acetone/Dimethyl sulfoxide/Tween® 80.
After 24 hours, the plants are contaminated by spraying the leaves with an aqueous suspension of Puccinia recondita spores. The contaminated wheat plants are incubated for 24 hours at 20° C. and at 100% relative humidity and then for 10 days at 20° C. and at 70-80% relative humidity.
The test is evaluated 11 days after the inoculation. 0% means an efficacy which corresponds to that of the control plants while an efficacy of 100% means that no disease is observed.

A further series has as its system Pyrenophora teres. Kind of series: In vivo preventive test on Pyrenophora teres (net blotch on barley). Conditions: 500 ppm of active ingredient, 14 days after inoculation. The method, then:
as §1, §2
The young plants of barley are treated by spraying the active ingredient prepared as described above. Control plants are treated only with an aqueous solution of Acetone/Dimethyl sulfoxide/Tween® 80.
After 24 hours, the plants are contaminated by spraying the leaves with an aqueous suspension of Pyrenophora teres spores. The contaminated barley plants are incubated for 48 hours at 20° C. and at 100% relative humidity and then for 12 days at 20° C. and at 70-80% relative humidity.
The test is evaluated 14 days after the inoculation. 0% means an efficacy which corresponds to that of the control plants while an efficacy of 100% means that no disease is observed.

The next series relates to Septoria tritici. Kind of series: In vivo preventive test on Septoria tritici (leaf spot on wheat). The settings on record: 500 ppm of active ingredient, 24 days after inoculation. How it is done: as §1, §2, §3
After 24 hours, the plants are contaminated by spraying the leaves with an aqueous suspension of Septoria tritici spores. The contaminated wheat plants are incubated for 72 hours at 18° C. and at 100% relative humidity and then for 21 days at 20° C. and at 90% relative humidity.
The test is evaluated 24 days after the inoculation. 0% means an efficacy which corresponds to that of the control plants while an efficacy of 100% means that no disease is observed.

The mark [4] stands for this setting: buffer pH 7/acetonitrile, read-out: T1/2 (pH 7) (converted).
The mark [5] stands for this setting: buffer pH 9/acetonitrile, read-out: T1/2 (pH 9) (converted).
[6] abbreviates: acidic range, 0.1% formic acid in water and acetonitrile as eluent, read-out: LogP [a].
The mark [7] stands for this setting: neutral range, 0.001 molar ammonium acetate solution in water and acetonitrile as eluent, read-out: LogP [b].

Here are results for twelve compounds from US10252977B2, “Halogen-substituted phenoxyphenylamidines and the use thereof as fungicides” (priority 2015, dated 2019).

Each structure is given as a SMILES string. Like-named read-outs stand apart in the source and are kept apart here.

Turning to `CCN(C)/C=N/c1cc(C)c(Oc2ccccc2)cc1C` [Compound no. 1 known from WO2008/110313, reference compound], the half-life at 58.8 µg/mL in series [1] (setting [4]) is 24 h; in series [1] (setting [5]), 16 h. For the same compound, the half-life in series [2] is 10 h. In the series on soy bean plants, the Necrosis in % turned out to be 90%.
For the compound `Cc1cc(Oc2ccccc2Cl)c(Cl)cc1[N+](=O)[O-]` [VI-03, 1-chloro-2-(2-chlorophenoxy)-4-methyl-5-nitrobenzene], the chromatographic logP in series [3] (setting [6]) was 4.51.
As for `CCN(C)C=Nc1cc(Cl)c(Oc2ccccc2Cl)cc1C` [Example I-03, N′-[5-chloro-4-(2-chlorophenoxy)-2-methylphenyl]-N-ethyl-N-methylimidoformamide], the chromatographic logP in series [3] (setting [6]) was 1.55. Moreover, the results for the half-life at 58.8 µg/mL in series [1] (setting [4]) and in series [1] (setting [5]) were 63 h and 53 h, respectively. The same compound showed a half-life in series [2] of 59 h.
Take `CCN(C)/C=N/c1cc(Cl)c(Oc2ccccc2F)cc1C` [Example I-01, N′-[5-chloro-4-(2-fluorophenoxy)-2-methylphenyl]-N-ethyl-N-methylimidoformamide]: the chromatographic logP turned out to be 1.64 in series [3] (setting [6]) and 4.56 in series [3] (setting [7]). Besides, the half-life at 58.8 µg/mL is 67 h in series [1] (setting [4]) and 60 h in series [1] (setting [5]). Besides, in series [2], the half-life was 32 h. The same compound yielded a Necrosis in % in the series with soy bean plants of 50%. In addition, in the series with Phakopsora pachyrhizi (100 ppm of active ingredient), the efficacy entry is “at least 70%”.
`CCN(C)C=Nc1cc(C(F)(F)F)c(Oc2ccccc2F)cc1C` [Example I-04, N-ethyl-N′-[4-(2-fluorophenoxy)-2-methyl-5-(trifluoromethyl)phenyl]-N-methylimidoformamide]: in series [3] (setting [6]), the chromatographic logP was found to be 1.72. Besides, the half-life at 58.8 µg/mL in series [1] (setting [4]) is 83 h; in series [1] (setting [5]), 74 h. In addition, the half-life in series [2] was over 200 h.
The matching figures for `CCN(C)C=Nc1cc(Cl)c(Oc2ccccc2I)cc1C` [Example I-06, N′-[5-chloro-4-(2-iodophenoxy)-2-methylphenyl]-N-ethyl-N-methylimidoformamide]: 1.81, 61 h, 55 h and 34 h.
Consider `CCN(C)/C=N/c1cc(C)c(Oc2ccccc2F)cc1C` [reference compound], for which the figures for the half-life at 58.8 µg/mL in series [1] (setting [4]) and in series [1] (setting [5]) were 25 h and 17 h, respectively. The Necrosis in % in the series with soy bean plants was 90%.
For the compound `Cc1cc(Oc2ccccc2Br)c(C(F)(F)F)cc1N` [VIII-05, 4-(2-bromophenoxy)-2-methyl-5-(trifluoromethyl) aniline], the chromatographic logP in series [3] (setting [6]) was found to be 3.68.
In the case of `CCN(C)C=Nc1cc(Cl)c(Oc2ccccc2Br)cc1C` [Example I-02, N′-[4-(2-bromophenoxy)-5-chloro-2-methylphenyl]-N-ethyl-N-methylimidoformamide], the chromatographic logP in series [3] (setting [6]) stood at 1.86; in series [3] (setting [7]), 5.13. The half-life at 58.8 µg/mL was 70 h in series [1] (setting [4]) and 64 h in series [1] (setting [5]). In series [2], the half-life is over 200 h. Moreover, the efficacy entry with Phakopsora pachyrhizi (10 ppm of active ingredient), with Puccinia recondita, in the series with Pyrenophora teres and with Septoria tritici was “at least 70%” throughout.
In the case of `Cc1cc(Oc2ccccc2Cl)c(Cl)cc1N` [VIII-03, 5-chloro-4-(2-chlorophenoxy)-2-methylaniline], the chromatographic logP in series [3] (setting [6]) was determined as 3.37.
Same read-out and setting: with `Cc1cc(Oc2ccccc2Br)c(C(F)(F)F)cc1[N+](=O)[O-]` [VI-05, 1-(2-bromophenoxy)-5-methyl-4-nitro-2-(trifluoromethyl)benzene] the figure was 4.64.
In the case of `CCN(C)C=Nc1cc(C(F)(F)F)c(Oc2ccccc2Br)cc1C` [Example I-05, N′-[4-(2-bromophenoxy)-2-methyl-5-(trifluoromethyl)phenyl]-N-ethyl-N-methylimidoformamide], the chromatographic logP in series [3] (setting [6]) is 1.9. Besides, the half-life at 58.8 µg/mL was 80 h in series [1] (setting [4]) and 66 h in series [1] (setting [5]). The compound further gave a half-life in series [2] of over 200 h.
